Reference: ChEMBL document CHEMBL4002647, “BMS-933043, a Selective α7 nAChR Partial Agonist for the Treatment of Cognitive Deficits Associated with Schizophrenia” (ACS Med Chem Lett, 2017)
The source made the active and inactive calls. No cut-off for these calls is given here.

Key:
[1] = Metabolic stability in monkey liver microsomes assessed as compound remaining at 3 uM after 10 mins by LC-MS/MS analysis; type: ADME, Macaca mulatta, microsome; conditions: rhesus monkey, read-out: Stability
[2] = Fraction unbound in mouse plasma at 10 uM after 4 hrs by equilibrium dialysis method; type: ADME, cell-free
CYP1A2 = CYP1A2 (Homo sapiens, UniProt P05177); assay: Inhibition of recombinant human CYP1A2 using fluorogenic substrate preincubated for 30 mins and measured after 20 to 60 mins in presence of NADPH regenerating system by fluorescence assay; type: ADME; conditions: recombinant CYP1A2, probe fluorogenic substrate (not named)
Canis familiaris [3] = species: Canis familiaris; assay: Hepatotoxicity in dog assessed as increase in alkaline phosphatase level; type: toxicity, Canis lupus familiaris; conditions: in vivo
CYP3A4 [4] = biological target: T1, CYP3A4 (Homo sapiens, UniProt P08684); assay: Inhibition of recombinant human CYP3A4 using fluorogenic substrate BZR preincubated for 30 mins and measured after 20 to 60 mins in presence of NADPH regenerating system by fluorescence assay; type: ADME; conditions: human, recombinant CYP3A4, probe BZR
[5] = biological target: T2, Neuronal acetylcholine receptor subunit alpha-7 (Homo sapiens, UniProt P36544); assay: Agonist activity at human alpha7 nAChR expressed in HEK293 cells co-expressing human RIC3 assessed as induction of peak current amplitutde at 10 uM at holding potential of -90 mV by whole-cell voltage clamp electrophysiology method relative to acetylcholine; type: cell-based
CYP3A4 [6] = biological target: T1, CYP3A4; assay: Inhibition of recombinant human CYP3A4 using fluorogenic substrate BFC preincubated for 30 mins and measured after 20 to 60 mins in presence of NADPH regenerating system by fluorescence assay; type: ADME; conditions: human, recombinant CYP3A4, probe BFC
CYP2B6 = CYP2B6 (Homo sapiens, UniProt P20813); assay: Inhibition of recombinant human CYP2B6 using fluorogenic substrate preincubated for 30 mins and measured after 20 to 60 mins in presence of NADPH regenerating system by fluorescence assay; type: ADME; conditions: human, recombinant CYP2B6, probe fluorogenic substrate (not named)
CYP2C8 = CYP2C8 (Homo sapiens, UniProt P10632); assay: Inhibition of recombinant human CYP2C8 using fluorogenic substrate preincubated for 30 mins and measured after 20 to 60 mins in presence of NADPH regenerating system by fluorescence assay; type: ADME; conditions: human, recombinant CYP2C8, probe fluorogenic substrate (not named)
[7] = biological target: T2, Neuronal acetylcholine receptor subunit alpha-7; assay: Agonist activity at human alpha7 nAChR expressed in HEK293 cells co-expressing human RIC3 assessed as area under current curve at 10 uM at holding potential of -90 mV by whole-cell voltage clamp electrophysiology method relative to acetylcholine; type: cell-based
[8] = biological target: Neuronal acetylcholine receptor; alpha4/beta2 (Rattus norvegicus) (UniProt P09483+P12390); assay: Antagonist activity at rat alpha4beta2 nAChR expressed in HEK293 cells assessed as inhibition of acetylcholine-induced increase in Ca2+ flux by Fluo-4 AM dye based FLIPR assay; type: cell-based
CYP2D6 = CYP2D6 (Homo sapiens, UniProt P10635); assay: Inhibition of recombinant human CYP2D6 using fluorogenic substrate preincubated for 30 mins and measured after 20 to 60 mins in presence of NADPH regenerating system by fluorescence assay; type: ADME; conditions: human, recombinant CYP2D6, probe fluorogenic substrate (not named)
[9] = Fraction unbound in human plasma at 10 uM after 4 hrs by equilibrium dialysis method; type: ADME, cell-free
[10] = Fraction unbound in monkey plasma at 10 uM after 4 hrs by equilibrium dialysis method; type: ADME, cell-free, Macaca mulatta; conditions: rhesus monkey
[11] = Metabolic stability in dog liver microsomes assessed as compound remaining at 3 uM after 10 mins by LC-MS/MS analysis; type: ADME, Canis lupus familiaris, microsome; conditions: read-out: Stability
Canis familiaris [12] = species: Canis familiaris; assay: Hepatotoxicity in dog assessed as increase in ALT level; type: toxicity, Canis lupus familiaris; conditions: in vivo
[13] = Metabolic stability in mouse liver microsomes assessed as compound remaining at 3 uM after 10 mins by LC-MS/MS analysis; type: ADME, microsome; conditions: read-out: Stability
[14] = Fraction unbound in dog plasma at 10 uM after 4 hrs by equilibrium dialysis method; type: ADME, cell-free, Canis lupus familiaris
[15] = Fraction unbound in rat plasma at 10 uM after 4 hrs by equilibrium dialysis method; type: ADME, cell-free
[16] = biological target: Nicotinic acetylcholine receptor alpha-1/beta-1/delta/epsilon (Rattus norvegicus) (UniProt P25109+P25108+P25110+P09660); assay: Antagonist activity at rat alpha1beta1delta1epsilon nAChR expressed in HEK293 cells assessed as inhibition of acetylcholine-induced increase in Ca2+ flux by Fluo-4 AM dye based FLIPR assay; type: cell-based
[17] = biological target: T2, Neuronal acetylcholine receptor subunit alpha-7; assay: Agonist activity at human alpha7 nAChR expressed in HEK293 cells co-expressing human RIC3 assessed as area under current curve at holding potential of -90 mV by whole-cell voltage clamp electrophysiology method; type: cell-based
Canis familiaris [18] = species: Canis familiaris; assay: Cardiotoxicity in dog assessed as QT prolongation; type: toxicity, Canis lupus familiaris
[19] = biological target: T2, Neuronal acetylcholine receptor subunit alpha-7; assay: Displacement of [125I]alpha-bungarotoxin from human alpha7 nAChR expressed in HEK293 cell membranes incubated for 2 hrs and measured by gamma counting method
Canis familiaris [20] = species: Canis familiaris; assay: […] in dog assessed as increase in alkaline phosphatase level; type: toxicity, Canis lupus familiaris; conditions: in vivo
[21] = biological target: Neuronal acetylcholine receptor; alpha3/beta4 (Rattus norvegicus) (UniProt P04757+P12392); assay: Antagonist activity at rat alpha3beta4 nAChR expressed in HEK293 cells assessed as inhibition of acetylcholine-induced increase in Ca2+ flux by Fluo-4 AM dye based FLIPR assay; type: cell-based
[22] = Metabolic stability in human liver microsomes assessed as compound remaining at 3 uM after 10 mins by LC-MS/MS analysis; type: ADME, microsome; conditions: read-out: Stability
[23] = Metabolic stability in rat liver microsomes assessed as compound remaining at 3 uM after 10 mins by LC-MS/MS analysis; type: ADME, microsome; conditions: read-out: Stability
Canis familiaris [24] = species: Canis familiaris; assay: Hepatotoxicity in dog assessed as increase in AST level; type: toxicity, Canis lupus familiaris; conditions: in vivo
CYP2C19 = CYP2C19 (Homo sapiens, UniProt P33261); assay: Inhibition of recombinant human CYP2C19 using fluorogenic substrate preincubated for 30 mins and measured after 20 to 60 mins in presence of NADPH regenerating system by fluorescence assay; type: ADME; conditions: recombinant CYP2C19, probe fluorogenic substrate (not named)
Canis familiaris [25] = species: Canis familiaris; assay: […] in dog assessed as increase in ALT level; type: toxicity, Canis lupus familiaris; conditions: in vivo
Canis familiaris [26] = species: Canis familiaris; assay: […] in dog assessed as increase in AST level; type: toxicity, Canis lupus familiaris; conditions: in vivo
CYP2C9 = CYP2C9 (Homo sapiens, UniProt P11712); assay: Inhibition of recombinant human CYP2C9 using fluorogenic substrate preincubated for 30 mins and measured after 20 to 60 mins in presence of NADPH regenerating system by fluorescence assay; type: ADME; conditions: recombinant CYP2C9, probe fluorogenic substrate (not named)
Sequence of CYP2C9 (P11712 whole entry): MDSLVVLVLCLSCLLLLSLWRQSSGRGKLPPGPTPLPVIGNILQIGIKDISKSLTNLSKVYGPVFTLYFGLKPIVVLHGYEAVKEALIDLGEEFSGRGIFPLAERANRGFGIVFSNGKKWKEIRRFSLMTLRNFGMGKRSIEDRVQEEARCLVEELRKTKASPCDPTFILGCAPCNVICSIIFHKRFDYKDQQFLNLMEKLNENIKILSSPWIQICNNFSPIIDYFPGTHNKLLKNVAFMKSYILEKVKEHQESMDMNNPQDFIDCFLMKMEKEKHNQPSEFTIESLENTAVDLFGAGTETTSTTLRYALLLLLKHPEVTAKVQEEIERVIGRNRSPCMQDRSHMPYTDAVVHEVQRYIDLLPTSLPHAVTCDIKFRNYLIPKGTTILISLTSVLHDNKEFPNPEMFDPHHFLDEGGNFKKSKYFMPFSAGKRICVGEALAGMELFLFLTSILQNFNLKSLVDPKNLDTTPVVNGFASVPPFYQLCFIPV

T2 sequence (P36544 whole entry): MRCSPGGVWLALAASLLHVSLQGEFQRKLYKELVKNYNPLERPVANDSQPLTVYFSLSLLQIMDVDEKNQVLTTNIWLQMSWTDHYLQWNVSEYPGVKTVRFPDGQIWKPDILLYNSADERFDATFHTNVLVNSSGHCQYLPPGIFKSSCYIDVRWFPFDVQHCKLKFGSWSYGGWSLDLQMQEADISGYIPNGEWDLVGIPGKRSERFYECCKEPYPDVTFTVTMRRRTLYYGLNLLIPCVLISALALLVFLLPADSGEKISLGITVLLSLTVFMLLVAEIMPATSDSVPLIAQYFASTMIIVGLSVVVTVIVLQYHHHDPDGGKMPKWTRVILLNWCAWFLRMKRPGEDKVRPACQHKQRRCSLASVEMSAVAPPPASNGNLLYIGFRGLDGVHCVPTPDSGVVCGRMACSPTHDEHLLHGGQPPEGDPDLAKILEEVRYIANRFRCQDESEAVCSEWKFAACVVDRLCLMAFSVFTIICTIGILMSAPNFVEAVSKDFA
T1 sequence (P08684 whole entry): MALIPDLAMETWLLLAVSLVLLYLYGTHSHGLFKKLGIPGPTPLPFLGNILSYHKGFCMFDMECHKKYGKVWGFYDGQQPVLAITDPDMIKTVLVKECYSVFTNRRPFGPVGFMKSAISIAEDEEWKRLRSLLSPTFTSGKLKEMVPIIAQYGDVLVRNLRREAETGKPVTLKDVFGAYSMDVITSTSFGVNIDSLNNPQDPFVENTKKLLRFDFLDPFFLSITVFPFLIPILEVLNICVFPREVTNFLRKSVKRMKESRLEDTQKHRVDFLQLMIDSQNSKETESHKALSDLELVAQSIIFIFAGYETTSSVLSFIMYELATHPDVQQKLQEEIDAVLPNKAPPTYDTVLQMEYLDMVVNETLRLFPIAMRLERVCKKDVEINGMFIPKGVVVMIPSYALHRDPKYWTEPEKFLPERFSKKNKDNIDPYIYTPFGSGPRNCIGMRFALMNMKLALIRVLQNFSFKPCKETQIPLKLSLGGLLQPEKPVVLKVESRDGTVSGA
Sequence of CYP1A2 (P05177 whole entry): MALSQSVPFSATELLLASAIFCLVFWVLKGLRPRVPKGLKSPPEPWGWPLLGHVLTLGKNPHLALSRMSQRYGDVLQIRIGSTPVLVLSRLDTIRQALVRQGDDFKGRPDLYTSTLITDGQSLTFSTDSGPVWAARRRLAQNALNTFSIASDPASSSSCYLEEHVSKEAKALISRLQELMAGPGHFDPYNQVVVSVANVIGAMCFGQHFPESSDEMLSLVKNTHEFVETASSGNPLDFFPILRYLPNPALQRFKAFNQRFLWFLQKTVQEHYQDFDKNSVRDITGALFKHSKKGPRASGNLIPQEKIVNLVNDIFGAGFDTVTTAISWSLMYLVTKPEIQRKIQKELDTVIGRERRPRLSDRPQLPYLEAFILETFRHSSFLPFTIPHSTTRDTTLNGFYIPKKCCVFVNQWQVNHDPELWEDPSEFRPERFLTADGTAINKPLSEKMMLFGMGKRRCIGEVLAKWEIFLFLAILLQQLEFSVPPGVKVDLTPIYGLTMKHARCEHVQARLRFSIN
Sequence of CYP2C19 (P33261 whole entry): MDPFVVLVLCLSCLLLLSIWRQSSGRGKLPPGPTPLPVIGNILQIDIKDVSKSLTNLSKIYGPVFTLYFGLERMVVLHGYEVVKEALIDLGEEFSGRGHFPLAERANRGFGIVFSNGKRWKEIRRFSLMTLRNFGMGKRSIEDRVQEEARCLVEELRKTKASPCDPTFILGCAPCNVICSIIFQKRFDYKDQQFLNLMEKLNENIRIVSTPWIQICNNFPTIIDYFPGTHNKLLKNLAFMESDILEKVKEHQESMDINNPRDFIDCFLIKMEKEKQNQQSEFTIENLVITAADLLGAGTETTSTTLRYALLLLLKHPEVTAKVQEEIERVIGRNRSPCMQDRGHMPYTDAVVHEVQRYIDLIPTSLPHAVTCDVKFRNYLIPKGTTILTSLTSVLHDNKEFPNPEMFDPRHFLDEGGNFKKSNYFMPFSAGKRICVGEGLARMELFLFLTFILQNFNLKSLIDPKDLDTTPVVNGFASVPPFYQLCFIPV
Sequence of CYP2B6 (P20813 whole entry): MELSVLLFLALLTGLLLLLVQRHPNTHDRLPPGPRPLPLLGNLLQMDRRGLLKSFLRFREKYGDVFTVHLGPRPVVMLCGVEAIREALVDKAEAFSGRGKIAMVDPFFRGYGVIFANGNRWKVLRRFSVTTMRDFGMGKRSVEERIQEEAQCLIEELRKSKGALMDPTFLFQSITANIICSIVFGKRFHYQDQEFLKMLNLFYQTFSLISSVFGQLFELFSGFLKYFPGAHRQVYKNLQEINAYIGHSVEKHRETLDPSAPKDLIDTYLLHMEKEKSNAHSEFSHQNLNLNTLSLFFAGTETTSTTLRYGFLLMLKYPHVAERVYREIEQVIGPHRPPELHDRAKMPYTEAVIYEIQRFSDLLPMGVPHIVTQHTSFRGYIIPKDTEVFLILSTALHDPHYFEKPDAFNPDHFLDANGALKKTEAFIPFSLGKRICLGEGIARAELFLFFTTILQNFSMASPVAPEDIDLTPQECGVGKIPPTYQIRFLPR
Sequence of CYP2C8 (P10632 whole entry): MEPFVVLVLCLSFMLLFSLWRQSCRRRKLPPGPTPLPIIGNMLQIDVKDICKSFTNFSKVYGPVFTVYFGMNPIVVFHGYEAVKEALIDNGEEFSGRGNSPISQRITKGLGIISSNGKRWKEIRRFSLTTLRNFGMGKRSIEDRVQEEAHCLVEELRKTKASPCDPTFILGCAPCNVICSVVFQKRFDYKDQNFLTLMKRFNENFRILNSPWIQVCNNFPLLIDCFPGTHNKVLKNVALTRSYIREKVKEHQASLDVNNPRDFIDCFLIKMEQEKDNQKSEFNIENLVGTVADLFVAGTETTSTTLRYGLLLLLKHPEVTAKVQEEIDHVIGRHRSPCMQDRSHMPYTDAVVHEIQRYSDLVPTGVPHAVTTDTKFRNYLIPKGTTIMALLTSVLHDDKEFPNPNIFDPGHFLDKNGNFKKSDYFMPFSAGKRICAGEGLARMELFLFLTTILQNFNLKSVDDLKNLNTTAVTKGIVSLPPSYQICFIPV
Sequence of CYP2D6 (P10635 whole entry): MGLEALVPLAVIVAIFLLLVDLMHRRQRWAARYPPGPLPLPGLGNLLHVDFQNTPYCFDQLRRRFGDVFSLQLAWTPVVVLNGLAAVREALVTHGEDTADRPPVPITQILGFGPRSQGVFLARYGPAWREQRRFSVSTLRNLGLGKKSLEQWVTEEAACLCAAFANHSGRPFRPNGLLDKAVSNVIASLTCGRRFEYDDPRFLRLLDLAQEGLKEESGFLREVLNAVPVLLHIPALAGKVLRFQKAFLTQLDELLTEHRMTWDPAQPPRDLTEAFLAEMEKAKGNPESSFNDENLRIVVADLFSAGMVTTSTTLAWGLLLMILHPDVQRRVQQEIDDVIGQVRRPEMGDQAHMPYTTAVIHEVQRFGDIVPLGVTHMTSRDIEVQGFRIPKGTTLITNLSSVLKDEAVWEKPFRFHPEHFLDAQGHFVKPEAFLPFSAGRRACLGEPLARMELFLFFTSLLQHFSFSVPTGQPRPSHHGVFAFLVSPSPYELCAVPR

## c1ccc2cc(NC3=NC[C@@]4(CN5CCC4CC5)O3)ncc2c1
[1]
  remaining at 10 min, 3 µM: 78%
[2]
  fraction unbound at 4 h, 10 µM: 0.23
CYP1A2
  IC50: > 40 µM
Canis familiaris [3]
  Activity: Toxic
CYP3A4 [4]
  IC50: > 40 µM
[5]
  %max: 26%
CYP3A4 [6]
  IC50: > 40 µM
CYP2B6
  IC50: > 40 µM
CYP2C8
  IC50: > 40 µM
[7]
  %max: 62%
[8]
  inhibition: inactive
CYP2D6
  IC50: > 40 µM
[9]
  fraction unbound at 4 h, 10 µM: 0.25
[10]
  fraction unbound at 4 h, 10 µM: 0.35
[11]
  remaining at 10 min, 3 µM: 74%
Canis familiaris [12]
  Activity: Toxic
[13]
  remaining at 10 min, 3 µM: 89%
[14]
  fraction unbound at 4 h, 10 µM: 0.44
[15]
  fraction unbound at 4 h, 10 µM: 0.27
[16]
  inhibition: inactive
[17]
  EC50: 0.24 µM
Canis familiaris [18]
  Activity: Toxic
[19]
  Ki: 0.0013 µM
Canis familiaris [20]
  Activity: Toxic
[21]
  inhibition: inactive
[22]
  remaining at 10 min, 3 µM: 96%
[23]
  remaining at 10 min, 3 µM: 1%
Canis familiaris [24]
  Activity: Toxic
CYP2C19
  IC50: > 40 µM
Canis familiaris [25]
  Activity: Toxic
Canis familiaris [26]
  Activity: Toxic
CYP2C9
  IC50: > 40 µM
